Patent publication US7563805B2, “Tri-, tetra-substituted-3-aminopyrrolidine derivative” (Daiichi Pharmaceutical Co., Ltd., priority 2005, dated 2009)
Converted amounts (≈) assume the structure as drawn. Read-outs that look alike come from different tables or passages of the source.

Legend:
S. aureus, 209P = test: antibacterial activity (MIC), standard method of Japanese Society of Chemotherapy
E. faecalis, ATCC 19433 = test: as above
E. coli NIHJ = test: as above
P. aeruginosa, 32104 = test: as above
S. marscecens, 10100 = test: as above
[1] = rat, in vivo, po, 5 mg/kg
Protocol: (§1) The Comparative compound was also evaluated by the same procedure.
(§2) The test substance was orally administered to fasted rats (7 week old male Crj:CD IGS rats purchased from Charles River Laboratories Japan, Inc.) at a dose of 5 mg/kg.
(§3) Animals of absorption test group (3 animals per group) were sacrificed by bleeding under etherization at 0.25, 0.5, 1, 2, 4, and 8 hours after the drug administration, and blood, lever, kidney, and lung were collected. The blood was centrifuged (3000 rpm×15 minutes, 4° C.) after coagulation to collect serum. Tissue was homogenized after adding 3 to 5 mL of 0.1 mol/l phosphate buffer (pH 7.0), and the supernatant was collected from the homogenate (3000 rpm×15 minutes, 4° C.).
(§4) Animals of excretion test group (3 animals per group) were placed in a metabolic cage, and the urine of 0 to 4 hours and 4 to 24 hours after the administration was collected in a water-cooled container. Simultaneously with the collection of the urine, the cage was also washed with about 15 mL of 0.1 mol/l phosphate buffer (pH 7.0) to collect the urine attached to the cage. For evaluation of conjugates such as glucuronide, the collected sample was also aliquoted and hydrolyzed with an equal amount of 1 mol/l aqueous solution of sodium hydroxide, and the hydrolysate was neutralized with 0.5 mol/l hydrochloric acid and measured for its concentration. The concentration was measured by LC-MS/MS method.
(§5) Pharmacokinetic parameters of the each drug in rat were calculated by from the time course of the average concentration by using pharmacokinetic analysis software PSAG-CP (AS Medica Inc.) in a manner not dependent on the model animal.

P. aeruginosa, 32121 = test: antibacterial activity (MIC), standard method of Japanese Society of Chemotherapy
hERG K+ channel [2] = target: T1, hERG K+ channel (Homo sapiens, UniProt Q12809)
T1 sequence (Q12809 whole entry): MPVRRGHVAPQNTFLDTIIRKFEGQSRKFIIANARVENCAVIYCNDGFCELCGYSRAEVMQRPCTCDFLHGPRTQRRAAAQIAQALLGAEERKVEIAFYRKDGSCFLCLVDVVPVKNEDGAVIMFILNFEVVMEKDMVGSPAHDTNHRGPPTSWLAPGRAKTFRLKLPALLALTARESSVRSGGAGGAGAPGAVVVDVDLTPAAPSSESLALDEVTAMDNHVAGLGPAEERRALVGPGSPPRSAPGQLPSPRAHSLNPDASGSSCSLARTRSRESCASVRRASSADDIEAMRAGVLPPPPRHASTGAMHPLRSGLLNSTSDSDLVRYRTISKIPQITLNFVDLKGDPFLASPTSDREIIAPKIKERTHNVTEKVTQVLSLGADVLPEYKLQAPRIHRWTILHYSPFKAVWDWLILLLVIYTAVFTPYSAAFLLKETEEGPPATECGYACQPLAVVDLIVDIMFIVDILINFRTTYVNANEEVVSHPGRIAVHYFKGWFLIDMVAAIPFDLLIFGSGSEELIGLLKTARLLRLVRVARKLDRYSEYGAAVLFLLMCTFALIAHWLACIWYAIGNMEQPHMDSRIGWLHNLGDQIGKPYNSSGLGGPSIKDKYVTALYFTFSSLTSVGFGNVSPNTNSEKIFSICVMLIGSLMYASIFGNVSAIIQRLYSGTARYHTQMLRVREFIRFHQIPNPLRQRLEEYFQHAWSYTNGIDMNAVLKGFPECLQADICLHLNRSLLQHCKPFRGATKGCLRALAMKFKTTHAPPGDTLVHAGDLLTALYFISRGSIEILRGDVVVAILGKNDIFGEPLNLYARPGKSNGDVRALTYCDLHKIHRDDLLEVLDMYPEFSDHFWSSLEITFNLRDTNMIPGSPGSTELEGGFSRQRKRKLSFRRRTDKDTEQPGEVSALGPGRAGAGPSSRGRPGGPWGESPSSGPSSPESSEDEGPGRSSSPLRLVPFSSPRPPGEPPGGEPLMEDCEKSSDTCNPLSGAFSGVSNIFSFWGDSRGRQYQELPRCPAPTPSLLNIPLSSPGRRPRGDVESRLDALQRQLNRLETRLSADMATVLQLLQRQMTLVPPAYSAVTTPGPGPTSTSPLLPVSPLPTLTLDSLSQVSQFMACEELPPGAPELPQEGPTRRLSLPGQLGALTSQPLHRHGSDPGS

P. vulgaris, 08601 = test: antibacterial activity (MIC), standard method of Japanese Society of Chemotherapy
[3] = test system: S. aureus, 87037 (LVFX-resistant MRSA); test: as above; conditions: S. aureus, 87037 (LVFX-resistant MRSA)
[4] = type: in vivo; conditions: 30 minutes observation
Protocol: The test substance was intracisternally administered to male Slc:ddy mice (6 animals per group), and the convulsion and death were monitored for each cage until 30 minutes after the administration. The test substance was dissolved in 5 μl of 1% aqueous solution of lactic acid, and the dose was 5, 15, or 50 μg per animal.

S. epidermidis, 56500 = test: antibacterial activity (MIC), standard method of Japanese Society of Chemotherapy
[5] = test system: S. pneumoniae, J24 (penicillin-intermediate resistant bacteria); test: as above
[6] = test system: bone marrow cells (polychromatic erythrocytes); test: mouse bone marrow micronucleus test; type: in vivo, Slc:ddY male mice; conditions: in vivo
Protocol: The control was 0.1 mol/l NaOH/physiological saline solvent, and the positive control was cyclophosphamide (cyclophoshamide, CP) dissolved and diluted in physiological saline. All samples were sterilized by filtering through Milex GS filter (0.22 μm). Each solution was intravenously administered at a dose of 10 mL/kg in single dose at an administration rate of 0.2 mL/min.
Bone marrow cells were collected from thigh bone at 24 hours after the administration, and smear preparation was prepared. After staining with acridine orange, 1000 polychromatic erythrocytes per animal were observed under fluorescence microscope to count frequency of micrronucleated polychromatic erythrocyte and ratio of the orthochromatic erythrocytes to the polychromatic erythrocyte in 1000 erythrocytes.

[7] = parameters: species or system guinea pigs (Slc:Hertley); conditions: guinea pig, in vivo; for Average score in GPMT: male, Slc:Hertley
Protocol: Guinea pig maximization test (GPMT) which is a widely accepted model for delayed antigenicity was conducted according to the method of Mugnusson et al. (J. invest. Dermatol., 52, 1969) by using a cutaneous sensitization concentration of 1% and a patch sensitization and induction concentration of 10%. At day 1, the animal was sensitized by cutaneously administering the test substance (the quinolone compounds and the control: vehicle, vaseline) (1% solution in physiological saline+FCA emulsion) at the back of the head of the shaved guinea pigs (7 week old male Slc:Hertley). At day 7, lauryl sodium sulfate (SLC) was applied for stimulus (adjuvant treatment), and on the next day, the test substance coated on a wax paper was patched onto the shaved skin to for sealed sensitization, and after 48 hours (at day 10), the waxed paper was removed. The skin reaction was observed upon the removal. On day 22, the test substance (10%) was patched onto the anterior side of the body for induction, and the induction patching was removed after 24 hours. On the next day (at day 24) and the next day (at day 25), the skin reaction was evaluated according to the description of the document as mentioned above. Erythema and edema were scored, and the case with the total score of 2 or higher was evaluated to be positive with the maximum of the score being 7.

[8] = in vivo; cited from earlier work
[9] = pharmacokinetics in rat (concentration in blood and organs, urine excretion) after oral administration; conditions: fasted rat, oral 5 mg/kg;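 further: fasted 7-week-old rats, three per group, tissue sampled up to 8 h post-dose and urine collected over 0–24 h, with conjugates measured after alkaline hydrolysis, concentrations by LC-MS/MS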
Protocol: as §1, §2, §3, §4, §5

[10] = female, cynomolgus monkey, in vivo, 5 mg/kg
in vivo = conditions: female, cynomolgus monkey, po, 5 mg/kg
hERG K+ channel [11] = target: T1, hERG K+ channel; test: hERG-K^+ channel blocking effect
CYP3A4 = CYP3A4 (Homo sapiens, UniProt P08684); conditions: known from the document cited; cited from earlier work
CYP3A4, sequence (P08684 whole entry): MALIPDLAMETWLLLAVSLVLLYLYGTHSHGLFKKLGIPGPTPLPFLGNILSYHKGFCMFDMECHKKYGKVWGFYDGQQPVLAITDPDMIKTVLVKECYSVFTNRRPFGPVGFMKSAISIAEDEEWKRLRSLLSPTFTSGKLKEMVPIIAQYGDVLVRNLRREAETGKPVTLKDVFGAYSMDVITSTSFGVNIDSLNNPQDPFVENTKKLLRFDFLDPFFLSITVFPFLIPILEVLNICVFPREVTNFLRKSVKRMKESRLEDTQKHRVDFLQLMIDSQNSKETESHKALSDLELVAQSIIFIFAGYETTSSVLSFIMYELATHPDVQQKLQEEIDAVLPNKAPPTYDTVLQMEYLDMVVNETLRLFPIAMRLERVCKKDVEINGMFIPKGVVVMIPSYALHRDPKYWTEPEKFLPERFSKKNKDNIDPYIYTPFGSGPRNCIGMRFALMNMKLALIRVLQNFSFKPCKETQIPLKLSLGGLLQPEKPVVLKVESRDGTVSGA

Question: Which MIC (S. aureus, 209P) does the source give for `COc1c(N2C[C@@H](C)[C@@](C)(N)C2)c(F)cc2c(=O)c(C(=O)O)cn([C@@H]3C[C@@H]3F)c12` (relative stereo) [Example 3, 7-[(3R*,4R*)-3-Amino-3,4-dimethylpyrrolidin-1-yl]-6-fluoro-1-[(1R,2S)-2-fluorocyclopropyl]-8-methoxy-1,4-dihydro-4-oxoguinoline-3-carboxylic acid] here?
Answer: 0.025 µg/mL (≈ 0.0614 µM)

Question: And the MIC (E. faecalis, ATCC 19433; E. faecalis)?
Answer: 0.2 µg/mL (≈ 0.491 µM)

Question: What about the MIC (E. coli NIHJ; E. coli NIHJ) of the same compound?
Answer: 0.012 µg/mL (≈ 0.0295 µM)

Question: What about the MIC (P. aeruginosa, 32104; P. aeruginosa) of the same compound?
Answer: 0.39 µg/mL (≈ 0.957 µM)

Question: And the MIC (S. marscecens, 10100)?
Answer: 0.2 µg/mL (≈ 0.491 µM)

Question: What about the “Recovery (%) in urine in relation to the amount administered, 0-24 h” value [1] of the same compound?
Answer: 24.5%

Question: What about the “Recovery (%) in urine in relation to the amount administered, Recovery (%) including conjugate” value [1] of the same compound?
Answer: 24.7%

Question: What about the “Serum AUC0-8 h” value [1] of the same compound?
Answer: 1850 ng·h/mL

Question: What about the “Serum Cmax (0.25 h)” value [1] of the same compound?
Answer: 1030 ng/mL

Question: What about the “Tissue AUC0-8 h, Kidney” value [1] of the same compound?
Answer: 17100 ng·h/mL

Question: What about the “Tissue AUC0-8 h, Liver” value [1] of the same compound?
Answer: 15400 ng·h/mL

Question: And the “Tissue AUC0-8 h, Lung” value [1]?
Answer: 7380 ng·h/mL

Question: What about the “Tissue Cmax, Kidney” value [1] of the same compound?
Answer: 8.83 µg/g

Question: What about the “Tissue Cmax, Liver” value [1] of the same compound?
Answer: 9.02 µg/g

Question: And the “Tissue Cmax, Lung” value [1]?
Answer: 3.47 µg/g

Question: What about the MIC (P. aeruginosa, 32121; P. aeruginosa) of the same compound?
Answer: 0.2 µg/mL (≈ 0.491 µM)

Question: What about the “hERG-K^+ channel blocking effect, Inhibition (%)” value (hERG K+ channel [2]; 30 µM) of the same compound?
Answer: 5.3 ± 4.1%

Question: And the “hERG-K^+ channel blocking effect, Inhibition (%)” value (hERG K+ channel [2]; 100 µM)?
Answer: 12.0 ± 4.0%

Question: And the “hERG-K^+ channel blocking effect, Inhibition (%)” value (hERG K+ channel [2]; 300 µM)?
Answer: 22.3 ± 0.7%

Question: And the MIC (P. vulgaris, 08601; P. vulgaris)?
Answer: 0.05 µg/mL (≈ 0.123 µM)

Question: And the MIC [3]?
Answer: 0.78 µg/mL (≈ 1.91 µM)

Question: What about the “convulsant activity (animals affected / 6 animals per group)” value ([4]; 5 μg/mouse intracisternal) of the same compound?
Answer: 0/6

Question: And the “convulsant activity (animals affected / 6 animals per group)” value ([4]; 15 μg/mouse intracisternal)?
Answer: 2/6

Question: And the “convulsant activity (animals affected / 6 animals per group)” value ([4]; 50 μg/mouse intracisternal)?
Answer: 6/6

Question: And the MIC (S. epidermidis, 56500; S. epidermidis)?
Answer: 0.1 µg/mL (≈ 0.245 µM)

Question: What about the MIC [5] of the same compound?
Answer: 0.1 µg/mL (≈ 0.245 µM)

Question: What about the “micronucleus induction rate versus control, evaluation result” value [6] of the same compound?
Answer: negative

Question: With `CO/N=C1\CN(c2nc3c(cc2F)c(=O)c(C(=O)O)cn3C2CC2)CC1CN` (centres unmarked) [Gemifloxacin, gemifloxacin] as the compound, how does the “Average score in GPMT” value [7] read?
Answer: 6.8

Question: What about the “side effect of rash in phase 3 clinical trial” value [8] of the same compound?
Answer: frequently develops the side effect of rash

Question: Which results are given for `COc1c(N2C[C@@H]3CCCN[C@@H]3C2)c(F)cc2c(=O)c(C(=O)O)cn(C3CC3)c12` [MFLX, moxifloxacin, reference compound]?
Answer: MIC (S. aureus, 209P; Staphylococcus aureus): 0.05 µg/mL (≈ 0.125 µM); Tissue Cmax, Lung [9]: 4.69 µg/g; MIC (E. faecalis, ATCC 19433; Enterococcus faecalis, ATCC19433, E. faecalis): 0.2 µg/mL (≈ 0.498 µM); MIC (E. coli NIHJ; Escherichia coli): 0.012 µg/mL (≈ 0.0299 µM); MIC (P. aeruginosa, 32104; Pseudomonas aeruginosa): 0.39 µg/mL (≈ 0.972 µM); Recovery (%) in urine in relation to the amount administered, Recovery (%) including conjugate ([1]; male, Crj:CD IGS): 30.8%; Serum Cmax (0.25 h) ([1]; male, Crj:CD IGS): 1490 ng/mL; MIC (P. aeruginosa, 32121; Pseudomonas aeruginosa): 0.2 µg/mL (≈ 0.498 µM); Evaluation in GPMT [7]: Negative; Average score in GPMT [7]: 0; Recovery (%) in urine in relation to the amount administered, Recovery (%) including conjugate [10]: 12.2%; Serum Cmax ([10]; po): 1030 ng/mL; MIC (P. vulgaris, 08601; Proteus vulgaris, 08601, P. vulgaris): 0.025 µg/mL (≈ 0.0623 µM); AUC(0-t) (in vivo): 6640 ng·h/mL; MIC ([3]; Staphylococcus aureus, MRSA): 1.56 µg/mL (≈ 3.89 µM); inhibition at 30 µM (hERG K+ channel [11]): 33.9 ± 8.3%; inhibition at 100 µM (hERG K+ channel [11]): 44.6 ± 10.2%; inhibition at 300 µM (hERG K+ channel [11]): 69.9 ± 8.3%; MIC (S. epidermidis, 56500; Staphylococcus epidermidis, 56500, S. epidermidis): 0.2 µg/mL (≈ 0.498 µM); MIC ([5]; Streptococcus pneumoniae): 0.1 µg/mL (≈ 0.249 µM)

Question: With `CC[C@H]1OC(=O)[C@H](C)[C@@H](O[C@H]2C[C@@](C)(OC)[C@@H](O)[C@H](C)O2)[C@H](C)[C@@H](O[C@@H]2O[C@H](C)C[C@H](N(C)C)[C@H]2O)[C@](C)(OC)C[C@@H](C)C(=O)[C@H](C)[C@@H](O)[C@]1(C)O` [clarithromycin] as the compound, how does the “MBI action for CYP3A4” value (CYP3A4) read?
Answer: exhibit MBI action for CYP3A4
